Results from US20110186299A1, “Low-Toxicity Biodegradable Corrosion Inhibitors” (priority 2008, published 2011).

Assays:
[1] = system: freshwater algae (Pseudokirchneriella subcapitata); test: Algal toxicity, growth inhibition of freshwater algae over 72 hours (OECD Guideline 201); type: cell-based; details: inhibition of 50% of algal growth
Procedure: The toxicity of the substances for the environment can be measured with regard to various standardized tests. One of the more sensitive consists of the measurement of the toxicity with regard to freshwater algae (Pseudokirchneriella subcapitata). The test is carried out according to the OECD Guideline 201. It consists in evaluating the inhibition of the growth of the algae over a period of time of 72 hours. The characteristic parameter is the EC50, which is the concentration of the substance which brings about inhibition of 50% of the algal growth during the test.

[2] = Biodegradability in seawater (OECD Guideline 306); details: marine environment
Procedure: The biodegradability tests are carried out in a marine environment according to the OECD Guideline 306.

| Compound | Algal toxicity (EC50 in mg/l) [1] [mg/L] | OECD 306 Biodegradability, % of biodegradation in 28 days [2] [%] |
| --- | --- | --- |
| CCCCCCCCC=CCCCCCCCC1=NCCN1CCN [Imidazoline A, N-aminoethyl-2-heptadecenylimidazoline] | 0.0047 | 57 |
| N-aminoethyl-2-heptadecenylimidazoline maleate [Example 2] | 1 | 66 |
